From US10466253B2, “Molecular flux rates through critical pathways measured by stable isotope labeling in vivo, as biomarkers of drug action and disease activity” (The Regents of the University of California, priority 2004, dated 2019)
Entries after “also recorded” stand apart in the source; their conditions may differ. Like-named read-outs stand apart in the source and are kept apart here.

Columns and labels:
liver cells = experiment: Liver cell proliferation under carbon tetrachloride treatment (2H2O labeling); assay type: in vivo, Swiss Webster mice; settings: IP injections over 7 days, increasing doses, concurrent 2H2O
Procedure: FIG. 13 depicts in vivo dose response of liver cell proliferation over 7 days of carbon tetrachloride treatment. Swiss Webster mice were given IP injections of CCl4 over 7 days concurrent with ^2H2O.
Mice are given CCl4 i.p. twice weekly for up to 4 weeks, and continuous oral ^2H2O is given throughout, following an i.p. bolus of ^2H2O. Livers are perfused in situ with saline to minimize blood cell contamination. Livers are homogenized and DNA from 5-mg aliquots is analyzed for ^2H incorporation by gas chromatography/mass spectrometry analysis, after isolation and hydrolysis of genomic DNA, as described in Example 1, supra. Livers are collected 4 days after the last dose of CCl4. The cell proliferation rate can then be calculated from the enrichment in the DNA of the target cell compared to measured body water enrichment or to a reference cell type which is fully replaced.
DNA is extracted from a liver sample, either by biopsy or liver homogenate. Liver cell proliferation can be determined on a sample a small as 2 mg (400,000 cells). The use of total liver, rather than isolated hepatocytes, allows for efficient scale-up and the sample processing can be adapted to a 96-well automated system for extremely high throughput. Total liver cell proliferation will be compared to the measured proliferation of isolated hepatocytes, and non-parenchymal cells for validation. […]

liver collagen synthesis = experiment: Liver collagen synthesis in CCl4-induced liver fibrosis; settings: for rate of liver collagen synthesis in CCl4-treated mice: CCl4-induced liver fibrosis
SW 1753 cells = experiment: DNA methylation in cultured tumor cells (2H3-methyl methionine labeling, GC-MS of methylcytosine); assay type: cell-based; settings: for inhibition at 0.25 µM: read-out: inhibition of methylation (reduction)
bone marrow = experiment: Bone marrow proliferation in tumor-bearing mice over 5 days of chemotherapy; assay type: in vivo, female balb/C mice; settings: Gem 125 mg/kg every other day, HU 500 mg/kg daily
[1] = test system: EMT7 mouse mammary carcinoma cells; experiment: In vivo tumor cell proliferation over 5 days of chemotherapy; parameters: species or system female balb/C mice; settings: Gem 125 mg/kg every other day, HU 500 mg/kg daily
[2] = Tolerability of maintained 2H2O body water enrichment; assay type: in vivo, humans and experimental animals; settings: 1-10% of total body water labeled, weeks or months; >100 human subjects
Description: Relatively high body water enrichments of ^2H2O (e.g., 1-10% of the total body water is labeled) may be achieved relatively inexpensively using the techniques of the invention. […] This finding in a large number of human subjects (>100 people) is contrary to previous concerns about vestibular toxicities at high doses of ^2H2O. The Applicant has discovered that as long as rapid changes in body water enrichment are prevented (e.g., by initial administration in small, divided doses), high body water enrichments of ^2H2O can be maintained with no toxicities. For example, the low expense of commercially available ^2H2O allows long-term maintenance of enrichments in the 1-5% range at relatively low expense (e.g., calculations reveal a lower cost for 2 months labeling at 2% ^2H2O enrichment, and thus 7-8% enrichment in the alanine precursor pool, than for 12 hours labeling of ^2H-leucine at 10% free leucine enrichment, and thus 7-8% enrichment in leucine precursor pool for that period).

[3] = test system: hippocampal neuroprogenitor cells; experiment: Hippocampal neuroprogenitor cell proliferation (2H2O labeling of DNA, GC/MS); assay type: in vivo, male 129SvEv mice
Procedure: FIG. 7 depicts the effects of chronic imipramine treatment on hippocampal neuroprogenitor cell proliferation in male 129SvEv mice. […] Mice received 3 weeks of treatment with imipramine (20 mg/kg/day) in drinking water and were labeled with 10% ^2H2O during the last 3 days of treatment. Data represent mean±SD, n=4 per group.
FIG. 8 depicts the effects of chronic fluoxetine treatment on hippocampal neuroprogenitor cell proliferation in male 129SvEv mice. […] Mice received 2 weeks of treatment with fluoxetine (10 mg/kg/day) in drinking water and were labeled with 10% ^2H2O during the last week of treatment.
DNA is then isolated from the tissue or cell of interest using a Qiagen kit (Qiagen, Valencia, Calif.), following the manufacturer's protocol. Isolated DNA, eluted in water, is adjusted to pH 9-10 and hydrolyzed enzymatically; deoxyribose is released selectively from purine (dA/dG) deoxynucleotides and converted to the pentane tetraacetate derivative. Alternatively, a pentafluorobenzyl derivative is prepared by reaction with excess pentafluorobenzyl hydroxylamine under acidic conditions, followed by acetylation with acetic anhydride. Either type of derivative is subsequently extracted with an organic solvent, dried with sodium sulfate, and analyzed by GC/MS as described, supra. […]

[4] = test system: bone marrow cells (total, lymphoid, myeloid, other); experiment: Bone marrow cell subset proliferation after hydroxyurea (myelosuppression)
mature neurons = experiment: Proliferation of mature neurons (neurogenesis; flow cytometry isolated neurons); assay type: in vivo; settings: imipramine-treated vs normal adult mice
Description: FIG. 27 depicts the proliferation of mature neurons in normal and antidepressant (imipramine)-treated adult mice. Neurons were isolated by flow cytometry and analyzed as described in Example 2, infra.
Animals are sacrificed, brain is removed and the hippocampus is dissected out. […] Different durations of label administration can be used to differentiate between the kinetics of rapidly proliferating cells, such as the progenitor cell population, compared to the slower rate of label incorporation in neuronal cells. In order to assess neurogenesis directly, ^2H2O-labeled […] are sacrificed, the brain is removed, the hippocampus is dissected out and cut into 0.5 mm slices followed by digestion/dissociation with papain and trypsin. The isolated cells are stained for neuronal markers and sorted by flow cytometry. DNA is isolated and labeling is measured as described, supra.

[5] = test system: endothelial cells from xenograft tumors; experiment: Tumor endothelial cell proliferation in xenograft tumors (angiogenesis); assay type: in vivo, Balb/c Nu-/Nu- mice; settings: two weeks drug treatment; vs vehicle (saline)/untreated group
Procedure: FIG. 18 depicts proliferation of endothelial cells from xenograft tumors in mice treated with an anti-angiogenic drug (Avastin) or a vehicle (saline). Endothelial cell proliferation is suppressed in animals treated with the drug.
The kinetics of angiogenesis are measured in liver and tumor xenografts. Balb/c Nu−/Nu− mice are transplanted with human breast tumor cells. After labeling with ^2H2O, individual animals are sacrificed, and both tumor tissue and liver tissue are harvested from the same animal. The tissue is then digested with collagenase (1 mg/mL) into a single cell suspension. Endothelial cells are enriched by Percoll gradient centrifugation, followed by FACS (sorting on isolection and CD31 positive cells). The proliferation rate of tumor endothelial cells, as well as liver endothelial cells is then measured by purifying, processing, derivatizing, and analyzing the DNA from the isolated endothelial cells, as described in example 2, supra.

microglia = experiment: Microglial proliferation assay of neuroinflammation (2H2O labeling, FACS-isolated microglia); assay type: in vivo, mice; settings: LPS i.p. (1 and 4 mg/kg every other day in FIG. 14); vs control; p<0.05 / p<0.01 ANOVA/Tukey
Procedure: FIG. 14 depicts microglial response to the neuroinflammatory toxin lipopolysacharride (LPS). LPS is administered every other day to mice intraperitoneally at the two doses indicated (1 and 4 mg/kg body weight). ^2H2O was administered concurrently. Some animals were harvested at each of the indicated time points, and microglia were isolated and analyzed for deuterium incorporation. […] Error bars indicate standard deviation.
FIG. 15 depicts the effects of two anti-inflammatory chemotherapeutic agents (dexamethasone and minocycline) on microglial proliferation. Mice were given ^2H2O and either intraperitoneal lipopolysaccharide (LPS) to induce neuroinflammation, or a vehicle (control). Mice given LPS were treated with either a vehicle or dexamethasone or minocycline. Microglia were then isolated and analyzed for deuterium incorporation as described herein.
Mice are labeled with ^2H2O for an appropriate period. Mice are anesthetized and perfused with 10 mL ice cold PBS (trans-cardiac perfusion). Brains are immediately harvested and placed on ice in cold PBS. […]
The resulting cells are stained with the macrophage specific markers F4/80 and CD11b, fixed in 4% paraformaldehyde (PFA), and then isolated by FACS. […] DNA is extracted from sorted cells, hydrolyzed, derivatized, and analyzed by GC/MS as described in Example 2, supra. […]

cerebral cortical tissue = experiment: Cerebral cortical tissue/cell turnover (2H2O labeling of cortical DNA); settings: high dose of LPS
[6] = single dose 500 mg/kg i.p., 8% 2H2O for subsequent 24 hours, vs vehicle

## ClC(Cl)(Cl)Cl [CCl4, carbon tetrachloride]
Liver cells
  total liver cell turnover (proliferation of liver cells): increased proliferation of liver cells
Liver collagen synthesis; fibrotic agent alone
  collagen synthesis in mouse liver: increases collagen synthesis

## Nc1ncn([C@H]2C[C@H](O)[C@@H](CO)O2)c(=O)n1 [Decitabine, decitabine]
SW 1753 cells
  inhibition at 0.25 µM: 70%

## Nc1ccn([C@@H]2O[C@H](CO)[C@@H](O)C2(F)F)c(=O)n1 [Gem, gemcitabine]
Bone marrow
  bone marrow proliferation: suppressed
[1]
  tumor cell proliferation: suppressed
[1]; listed as gemcitabine
  tumor cell proliferation: reduced

## [2H]O[2H] [^2H2O]
[2]
  toxicity of maintained body water enrichment: without any evidence of toxicity

## Nc1ncn([C@@H]2O[C@H](CO)[C@@H](O)[C@H]2O)c(=O)n1 [azacytidine, azacitidine]
SW 1753 cells; 250 nM, SW 1753 cells, DMEM 10% FBS with 2H3-methyl methionine
  inhibition at 0.25 µM: < 10%
SW 1753 cells; 24-hour labeling period, 125, 250, 500 nM
  fraction of methylcytosine that is new: suppressed

## CNCCC(Oc1ccc(C(F)(F)F)cc1)c1ccccc1 (stereo not shown) [fluoxetine]
[3]; fluoxetine 10 mg/kg/day in drinking water, 2 weeks, 10% 2H2O during last week, p<0.05 vs vehicle
  hippocampal neuroprogenitor cell proliferation: increases progenitor cell proliferation; also recorded: significant increase

## NC(=O)NO [hydroxyurea]
[4]; in three cases (indicated by **)
  bone marrow proliferation across subsets (TBM, lymphoid, myeloid, other): suppressed bone marrow proliferation
[4]; [6]
  proliferation of lymphoid bone marrow cells: statistically significant suppressive effect
  proliferation of other bone marrow cells: statistically significant suppressive effect
  proliferation of total bone marrow (TBM): statistically significant suppressive effect
Bone marrow
  bone marrow proliferation: suppressed
[1]
  tumor cell proliferation: reduced
[1]; listed as HU
  tumor cell proliferation: suppressed

## CN(C)CCCN1c2ccccc2CCc2ccccc21 [imipramine]
Mature neurons
  rate of mature neuron formation: increased formation of mature neurons
Mature neurons; listed as Imipramine
  rate of mature neuron formation: increased the rate of mature neuron formation
[3]; imipramine 20 mg/kg/day in drinking water, 3 weeks, 10% 2H2O during last 3 days, vs vehicle
  hippocampal neuroprogenitor cell proliferation: increases progenitor cell proliferation; also recorded: significant increase

## Avastin: Avastin (Genentech, CA), a known anti-angiogenesis drug
[5]
  tumor endothelial cell proliferation rate: suppressed; also recorded: significantly lower proliferation rate

## lipopolysaccharide [LPS]
microglia
  microglial proliferation: increased proliferative response; also recorded: increased proliferation; also recorded: statistically significant and dose-dependent increase
Cerebral cortical tissue
  cortical tissue turnover: affected cortical tissue turnover; also recorded: increased cortical cell turnover

B1: Interferon-gamma: anti-fibrotic agent (protein, UniProt P01579 24-161, looked up)
Interferon gamma: QDPYVKEAENLKKYFNAGHSDVADNGTLFLGILKNWKEESDRKIMQSQIVSFYFKLFKNFKDDQSIQKSVETIKEDMNVKFFNSNKKKRDDFEKLTNYSVTDLNVQRKAIHELIQVMAELSPAAKTGKRKRSQMLFRG
Liver collagen synthesis
  rate of liver collagen synthesis in CCl4-treated mice: reduce the rate of collagen synthesis
Liver collagen synthesis; listed as interferon-gamma
  rate of liver collagen synthesis in CCl4-treated mice: suppressed
